Experimental data as given in patent US12497393B2, “β-lactam compound, use thereof and preparation method therefor” (priority 2020, dated 2025).
Values after ≈ are worked out from the molar mass of the structure shown. Like-named read-outs stand apart in the source and are kept apart here.

How the values were obtained:
Experiment in all cases: Antibacterial activity MIC assay (two-fold dilution agar plating)
Format in all cases: cell-based
[1] = tested on: Acinetobacter baumannii; details: for MIC: Acinetobacter baumannii, read-out: Minimal Inhibitory Concentration (MIC)
Protocol: (§1) Antibacterial Activity-Evaluating Method (MIC Assay)
(§2) In this study, the compounds of the present invention were tested for their antibacterial activities by using two-fold dilution agar plating method and Denley Multipoint Inoculator A400 according to the guidelines of the CLSI/NCCLS standard. The tested strains were amplified by hydrolyzed casein peptone (Mueller-Hinton Agar) broth and Brain and Heart Infusion. The strains used in this study were bacterial strains that were purchased from ATCC or clinically isolated in Chinese hospitals. Aztreonam, polymyxin or levofloxacin was used as positive control. The drugs were diluted with hydrolyzed casein peptone broth to the desired concentrations including 128.0, 64.0, 32.0, 16.0, 8.0, 4.0, 2.0, 1.0, 0.5, 0.25, 0.125, 0.06 and 0.03 μg/mL, and then placed respectively into each well and mixed thoroughly. After inoculation, the tested strains were incubated for 18 hours at a constant temperature of 35° C., and their growth levels were observed. The drug concentration with no microbial growth in the well was recorded as the lowest Minimal Inhibitory Concentration (MIC).

[2] = tested on: Citrobacter freundii; details: Citrobacter freundii ATCC 43864; for MIC: ATCC43864, read-out: Minimal Inhibitory Concentration (MIC)
Protocol: as §1, §2

[3] = tested on: Enterobacter aerogenes; details: Enterobacter aerogenes ATCC 13048; for MIC: Klebsiella aerogenes, ATCC13048, read-out: Minimal Inhibitory Concentration (MIC)
Protocol: as §1, §2

[4] = tested on: Enterobacter cloacae; details: for MIC: read-out: Minimal Inhibitory Concentration (MIC)
Protocol: as §1, §2

[5] = tested on: Escherichia coli; details: for MIC: Escherichia coli, read-out: Minimal Inhibitory Concentration (MIC)
Protocol: as §1, §2

[6] = tested on: Klebsiella Pneumoniae; details: for MIC: Klebsiella pneumoniae, read-out: Minimal Inhibitory Concentration (MIC)
Protocol: as §1, §2

[7] = tested on: Proteus mirabilis; details: for MIC: Proteus mirabilis, ATCC49565, Proteus mirabilis ATCC 49565, read-out: Minimal Inhibitory Concentration (MIC)
Protocol: as §1, §2

[8] = tested on: Proteus vulgaris; details: for MIC: Proteus vulgaris, ATCC29905, Proteus vulgaris ATCC 29905, read-out: Minimal Inhibitory Concentration (MIC)
Protocol: as §1, §2

[9] = tested on: Providencia rettgeri; details: for MIC: Providencia rettgeri, ATCC31052, Providencia rettgeri ATCC 31052, read-out: Minimal Inhibitory Concentration (MIC)
Protocol: as §1, §2

[10] = tested on: Pseudomonas aeruginosa; details: for MIC: read-out: Minimal Inhibitory Concentration (MIC)
Protocol: as §1, §2

[11] = tested on: Salmonella typhi; details: for MIC: Salmonella enterica, TYPHI, read-out: Minimal Inhibitory Concentration (MIC)
Protocol: as §1, §2

[12] = tested on: Serratia marcescens; details: Serratia marcescens ATCC 21074; for MIC: ATCC21074, read-out: Minimal Inhibitory Concentration (MIC)
Protocol: as §1, §2

[13] = tested on: Shigella flexneri; details: Shigella flexneri ATCC 12022; for MIC: ATCC12022, read-out: Minimal Inhibitory Concentration (MIC)
Protocol: as §1, §2

[14] = tested on: Stenotrophomonas maltophilia; details: Stenotrophomonas maltophilia ATCC 13636; for MIC: ATCC13636, read-out: Minimal Inhibitory Concentration (MIC)
Protocol: as §1, §2

[15] = ATCC19606, Acinetobacter baumannii ATCC 19606
[16] = ATCC43560, Enterobacter cloacae ATCC 43560
[17] = Enterobacter cloacae CDC1000654
[18] = ATCC25922, Escherichia coli ATCC 25922, ESBLs(−)
[19] = ATCC35218, Escherichia coli ATCC 35218, ESBLs(+)
[20] = Escherichia coli 08-85, mcr-1(+)
[21] = Escherichia coli 13-43, mcr-1(+)
[22] = Escherichia coli 13-66, mcr-1(+)
[23] = Escherichia coli 16-1, ESBLs(+)
[24] = Escherichia coli 16-7, ESBLs(−)
[25] = Escherichia coli 17-R28, CRE, NDM-1(+)
[26] = Escherichia coli CDC1001728, NDM-1(+)
[27] = ATCC700603, Klebsiella Pneumoniae ATCC 700603, ESBLs(+)
[28] = ATCCBAA2146, Klebsiella Pneumoniae ATCC BAA-2146, NDM-1(+)
[29] = Klebsiella Pneumoniae 09-20, mcr-1(+)
[30] = Klebsiella Pneumoniae 16-2, ESBLs(−)
[31] = Klebsiella Pneumoniae 16-14, ESBLs(+)
[32] = Klebsiella Pneumoniae 17-R27, CRE
[33] = ATCC27853, Pseudomonas aeruginosa ATCC 27853

CC1(C)[C@H](NC(=O)/C(=N\OC2(C(=O)O)CCC2)c2csc(N)n2)C(=O)N1OS(=O)(=O)O [Compound A-2]
MIC [1, 15]: 16 µg/mL (≈ 33.5 µM)
MIC ([1]; Acinetobacter baumannii 16-16): > 64 µg/mL
MIC ([1]; Acinetobacter baumannii 16-33): 16 µg/mL (≈ 33.5 µM)
MIC [2]: 0.12 µg/mL (≈ 0.251 µM)
MIC [3]: 1 µg/mL (≈ 2.09 µM)
MIC [4, 16]: 0.12 µg/mL (≈ 0.251 µM)
MIC [4, 17]: 2 µg/mL (≈ 4.19 µM)
MIC [5, 18]: 0.12 µg/mL (≈ 0.251 µM)
MIC [5, 19]: 0.06 µg/mL (≈ 0.126 µM)
MIC [5, 20]: 0.12 µg/mL (≈ 0.251 µM)
MIC [5, 21]: 0.12 µg/mL (≈ 0.251 µM)
MIC [5, 22]: 0.12 µg/mL (≈ 0.251 µM)
MIC [5, 23]: 0.06 µg/mL (≈ 0.126 µM)
MIC [5, 24]: 0.12 µg/mL (≈ 0.251 µM)
MIC [5, 25]: 16 µg/mL (≈ 33.5 µM)
MIC [5, 26]: 0.5 µg/mL (≈ 1.05 µM)
MIC [6, 27]: 1 µg/mL (≈ 2.09 µM)
MIC [6, 28]: 0.25 µg/mL (≈ 0.524 µM)
MIC [6, 29]: 0.12 µg/mL (≈ 0.251 µM)
MIC [6, 30]: 2 µg/mL (≈ 4.19 µM)
MIC [6, 31]: 0.12 µg/mL (≈ 0.251 µM)
MIC [6, 32]: 0.25 µg/mL (≈ 0.524 µM)
MIC [7]: ≤ 0.03 µg/mL
MIC [8]: ≤ 0.03 µg/mL
MIC [9]: ≤ 0.03 µg/mL
MIC [10, 33]: 4 µg/mL (≈ 8.38 µM)
MIC ([10]; Pseudomonas aeruginosa 16-11): 4 µg/mL (≈ 8.38 µM)
MIC ([10]; Pseudomonas aeruginosa PAO1): 1 µg/mL (≈ 2.09 µM)
MIC [11]: 0.12 µg/mL (≈ 0.251 µM)
MIC [12]: 0.25 µg/mL (≈ 0.524 µM)
MIC [13]: 0.25 µg/mL (≈ 0.524 µM)
MIC [14]: 4 µg/mL (≈ 8.38 µM)

C=CCON=C(C(=O)NC1C(=O)N(OS(=O)(=O)O)C1(C)C)c1csc(N)n1 (stereo not shown) [Compound B-1]
Minimal Inhibitory Concentration (MIC) ([1]; Acinetobacter baumannii 16-16): 32 µg/mL
Minimal Inhibitory Concentration (MIC) ([1]; Acinetobacter baumannii 16-33): 8 µg/mL
Minimal Inhibitory Concentration (MIC) ([1]; Acinetobacter baumannii ATCC 19606): 8 µg/mL
Minimal Inhibitory Concentration (MIC) [2]: 0.5 µg/mL
Minimal Inhibitory Concentration (MIC) [3]: 1 µg/mL
Minimal Inhibitory Concentration (MIC) ([4]; Enterobacter cloacae ATCC 43560): 0.25 µg/mL
Minimal Inhibitory Concentration (MIC) [4, 17]: 8 µg/mL
Minimal Inhibitory Concentration (MIC) [5, 20]: 0.5 µg/mL
Minimal Inhibitory Concentration (MIC) [5, 21]: 1 µg/mL
Minimal Inhibitory Concentration (MIC) [5, 22]: 1 µg/mL
Minimal Inhibitory Concentration (MIC) [5, 23]: 0.25 µg/mL
Minimal Inhibitory Concentration (MIC) [5, 24]: 0.25 µg/mL
Minimal Inhibitory Concentration (MIC) ([5]; Escherichia coli ATCC 25922, ESBLs(−)): 0.5 µg/mL
Minimal Inhibitory Concentration (MIC) ([5]; Escherichia coli ATCC 35218, ESBLs(+)): 0.5 µg/mL
Minimal Inhibitory Concentration (MIC) [5, 26]: 4 µg/mL
Minimal Inhibitory Concentration (MIC) [6, 29]: 1 µg/mL
Minimal Inhibitory Concentration (MIC) [6, 30]: 0.5 µg/mL
Minimal Inhibitory Concentration (MIC) [6, 31]: 0.5 µg/mL
Minimal Inhibitory Concentration (MIC) ([6]; Klebsiella Pneumoniae ATCC 700603, ESBLs(+)): 16 µg/mL
Minimal Inhibitory Concentration (MIC) ([6]; Klebsiella Pneumoniae ATCC BAA-2146, NDM-1(+)): 4 µg/mL
Minimal Inhibitory Concentration (MIC) ([7]; Proteus mirabilis ATCC 49565): 0.125 µg/mL
Minimal Inhibitory Concentration (MIC) ([8]; Proteus vulgaris ATCC 29905): ≤0.03 µg/mL
Minimal Inhibitory Concentration (MIC) ([9]; Providencia rettgeri ATCC 31052): ≤0.03 µg/mL
Minimal Inhibitory Concentration (MIC) ([10]; Pseudomonas aeruginosa 16-11): >64 µg/mL
Minimal Inhibitory Concentration (MIC) ([10]; Pseudomonas aeruginosa ATCC 27853): 64 µg/mL
Minimal Inhibitory Concentration (MIC) ([10]; Pseudomonas aeruginosa PAO1): 16 µg/mL
Minimal Inhibitory Concentration (MIC) ([11]; Salmonella typhi H901): 0.25 µg/mL
Minimal Inhibitory Concentration (MIC) [12]: 1 µg/mL
Minimal Inhibitory Concentration (MIC) [13]: 0.5 µg/mL
Minimal Inhibitory Concentration (MIC) [14]: 16 µg/mL

CC1(C)[C@H](NC(=O)/C(=N\OC2(C(=O)O)CC2)c2csc(N)n2)C(=O)N1OS(=O)(=O)O [Compound A-1]
MIC [1, 15]: 16 µg/mL (≈ 34.5 µM)
MIC ([1]; Acinetobacter baumannii 16-16): 64 µg/mL (≈ 138 µM)
MIC ([1]; Acinetobacter baumannii 16-33): 32 µg/mL (≈ 69 µM)
MIC [2]: 0.12 µg/mL (≈ 0.259 µM)
MIC [3]: 0.12 µg/mL (≈ 0.259 µM)
MIC [4, 16]: 0.06 µg/mL (≈ 0.129 µM)
MIC [4, 17]: 2 µg/mL (≈ 4.32 µM)
MIC [5, 18]: 0.12 µg/mL (≈ 0.259 µM)
MIC [5, 19]: 0.06 µg/mL (≈ 0.129 µM)
MIC [5, 20]: 0.12 µg/mL (≈ 0.259 µM)
MIC [5, 21]: 0.12 µg/mL (≈ 0.259 µM)
MIC [5, 22]: 0.12 µg/mL (≈ 0.259 µM)
MIC [5, 23]: 0.06 µg/mL (≈ 0.129 µM)
MIC [5, 24]: 0.12 µg/mL (≈ 0.259 µM)
MIC [5, 25]: 4 µg/mL (≈ 8.63 µM)
MIC [5, 26]: 0.25 µg/mL (≈ 0.539 µM)
MIC [6, 27]: 4 µg/mL (≈ 8.63 µM)
MIC [6, 28]: 0.5 µg/mL (≈ 1.08 µM)
MIC [6, 29]: 0.06 µg/mL (≈ 0.129 µM)
MIC [6, 30]: 2 µg/mL (≈ 4.32 µM)
MIC [6, 31]: 0.12 µg/mL (≈ 0.259 µM)
MIC [6, 32]: 0.25 µg/mL (≈ 0.539 µM)
MIC [7]: ≤ 0.03 µg/mL
MIC [8]: ≤ 0.03 µg/mL
MIC [9]: ≤ 0.03 µg/mL
MIC [10, 33]: 8 µg/mL (≈ 17.3 µM)
MIC ([10]; Pseudomonas aeruginosa 16-11): 8 µg/mL (≈ 17.3 µM)
MIC ([10]; Pseudomonas aeruginosa PAO1): 2 µg/mL (≈ 4.32 µM)
MIC [11]: 0.06 µg/mL (≈ 0.129 µM)
MIC [12]: 0.25 µg/mL (≈ 0.539 µM)
MIC [13]: 0.12 µg/mL (≈ 0.259 µM)
MIC [14]: 8 µg/mL (≈ 17.3 µM)
